Earlier results, collected in patent EP3952993B1, “METHOD OF TREATING FUMARIC ACID ESTER-RESISTANT PLAQUE PSORIASIS” (Almirall S.A., priority 2019, dated 2020).
Where a name gives a salt, the structure may show the parent alone.

System: patients diagnosed with moderate-to-severe psoriasis
Conditions: up to 720 mg/daily; 16 weeks; vs Fumaderm and placebo

COC(=O)/C=C/C(=O)OC [DMF, dimethyl fumarate]
co-primary endpoints: PASI 75 and clear/almost clear in the PGA: significantly superior to placebo and non-inferior to FAEs
